From PubChem BioAssay (NCI) come the findings set out here.

A word on the TGI: it is the concentration giving total growth inhibition. For orientation: GI50 means the concentration that inhibits growth by half.

Test systems include MOLT-4 leukemia; SK-MEL-2 melanoma; OVCAR-5 ovarian; 786-0 renal; SF-295 CNS; SW-620 colon; NCI-H522 lung; MDA-MB-231 breast; BT-549 breast; DU-145 prostate.
Test in all cases: DTP human tumour cell line panel, 48 h

SMILES strings stand for the structures.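 Following 48 hours of exposure in 96-well plates, responses at five concentrations were used to interpolate endpoints linearly. GI50: concentration for 50% inhibition of growth. TGI denotes the concentration required for complete inhibition of growth.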 Some results are limits rather than exact numbers.

As to `O=c1[nH]c(=O)n(C2CC(O)C(CO)O2)cc1OS(=O)(=O)C(F)(F)F` (stereo not drawn), the TGI in the assay with MOLT-4 leukemia, with SK-MEL-2 melanoma, in the assay with OVCAR-5 ovarian, with 786-0 renal, in the assay on SF-295 CNS and in the assay with SW-620 colon was > 100 µM each time. For the same compound, in the assay on NCI-H522 lung, the TGI was > 100 µM.

Take `CC12c3ccccc3C(OC=O)(c3ccccc31)C1(C)c3ccccc3C2(OC=O)c2ccccc21`: the TGI in the assay on MOLT-4 leukemia is 68.5 µM; in the assay on SK-MEL-2 melanoma, > 100 µM; in the assay with OVCAR-5 ovarian, > 100 µM; in the assay on 786-0 renal, > 100 µM; in the assay on SF-295 CNS it was > 100 µM; in the assay on SW-620 colon it was > 100 µM. In the assay with NCI-H522 lung, the TGI was > 100 µM.

In the case of `NC(N)=Nc1nc2ccccc2o1`, the GI50 in the assay with MOLT-4 leukemia, with MDA-MB-231 breast, in the assay on BT-549 breast, with SK-MEL-2 melanoma, with OVCAR-5 ovarian and in the assay on 786-0 renal was > 100 µM each time. The GI50 with SF-295 CNS, in the assay on SW-620 colon and in the assay on DU-145 prostate was > 100 µM in each case. The TGI in the assay with MOLT-4 leukemia, with MDA-MB-231 breast, in the assay on BT-549 breast, in the assay on SK-MEL-2 melanoma, in the assay with OVCAR-5 ovarian and in the assay with 786-0 renal was > 100 µM throughout. For the same compound, the TGI in the assay with SF-295 CNS, with SW-620 colon and in the assay with DU-145 prostate was > 100 µM throughout.

Turning to `CCOc1ccc(OCC(=O)O)c2c1CCCC2=O`, the total growth inhibition concentration (TGI) in the assay on MOLT-4 leukemia, in the assay with SK-MEL-2 melanoma, with OVCAR-5 ovarian, with 786-0 renal, in the assay on SF-295 CNS and in the assay with SW-620 colon was > 100 µM throughout. Further, the TGI with NCI-H522 lung was > 100 µM.

`COC(=N)c1csc(C2OC(CO)C(O)C2O)n1` (stereo not drawn): the TGI in the assay on MOLT-4 leukemia, in the assay on SK-MEL-2 melanoma, in the assay with OVCAR-5 ovarian, in the assay with 786-0 renal, in the assay on SF-295 CNS and with SW-620 colon was > 100 µM in each case. For the same compound, in the assay with NCI-H522 lung, the TGI was > 100 µM.

For `COc1cc(OC)c(OC)cc1/C=N/NC(=O)N/N=C/c1cc(OC)c(OC)cc1OC`, the TGI with MOLT-4 leukemia, in the assay on SK-MEL-2 melanoma, in the assay with OVCAR-5 ovarian, with 786-0 renal, in the assay with SF-295 CNS and with SW-620 colon was > 100 µM throughout. This compound also yielded a TGI in the assay with NCI-H522 lung of 86.5 µM.

As for `CCOC(=O)C(Br)=C1OC(=O)c2ccccc2-c2ccccc21` (mixture of isomers), the TGI in the assay with MOLT-4 leukemia was 47.6 µM; in the assay with SK-MEL-2 melanoma, 37.4 µM; in the assay on OVCAR-5 ovarian it was 42.6 µM; in the assay on 786-0 renal, 32.7 µM; in the assay with SF-295 CNS it was 54.4 µM; with SW-620 colon, 35.1 µM. Moreover, the TGI with NCI-H522 lung was 32 µM.

On to `O=C(c1ccc([N+](=O)[O-])cc1[N+](=O)[O-])N(/N=C/C=C/c1ccccc1)c1nnc(-c2ccccc2)c(-c2ccccc2)n1`, for which the concentration for total growth inhibition (TGI) was > 100 µM with MOLT-4 leukemia; 97.5 µM in the assay with SK-MEL-2 melanoma; > 100 µM in the assay with OVCAR-5 ovarian; 56 µM in the assay on 786-0 renal; > 100 µM in the assay with SF-295 CNS; > 100 µM in the assay with SW-620 colon. The TGI in the assay on NCI-H522 lung amounted to 96.6 µM.

Consider `CCOc1ccc(NC(=O)CC2SC(=Nc3ccc(C)cc3C)NC2=O)cc1` (stereo not drawn), for which the TGI in the assay with MOLT-4 leukemia was 65 µM; with SK-MEL-2 melanoma, > 100 µM; with OVCAR-5 ovarian it was > 100 µM; in the assay with 786-0 renal it was > 100 µM; in the assay with SF-295 CNS, > 100 µM; in the assay with SW-620 colon it was > 100 µM. For the same compound, the TGI in the assay with NCI-H522 lung was > 100 µM.

In the case of `CC(C)C1CN(C(=O)OCc2ccccc2)C2N1C(=O)C2(C)OCc1ccccc1` (stereo not drawn), the TGI in the assay on MOLT-4 leukemia is 84 µM; with SK-MEL-2 melanoma, 73.5 µM; in the assay on 786-0 renal, > 100 µM; in the assay on SF-295 CNS, > 100 µM; in the assay on SW-620 colon, > 100 µM.

For the compound `CCC(C)(C)n1c(C)nc2c1C(=O)c1ccccc1C2=O`, the concentration for total growth inhibition (TGI) with MOLT-4 leukemia is > 100 µM; with SK-MEL-2 melanoma, 42.3 µM; with 786-0 renal, > 100 µM; with SF-295 CNS, > 100 µM; with SW-620 colon, > 100 µM; in the assay with NCI-H522 lung it was 87.5 µM.

In the case of `COCOCCC#CCO`, the TGI in the assay with MOLT-4 leukemia, in the assay on SK-MEL-2 melanoma, in the assay on OVCAR-5 ovarian, in the assay with 786-0 renal, in the assay on SF-295 CNS and in the assay with SW-620 colon was > 100 µM throughout. Further, the TGI with NCI-H522 lung is > 100 µM.

Regarding `CN1Nc2ccccc2CC1=O`, the TGI in the assay on SK-MEL-2 melanoma, with OVCAR-5 ovarian, in the assay with 786-0 renal, in the assay with SF-295 CNS and with SW-620 colon was > 100 µM throughout.

Take `O=C1C=C(Nc2ccc(Cl)cc2C(=O)c2ccccc2)c2ccccc2C1=O`: the TGI in the assay on MOLT-4 leukemia, in the assay on SK-MEL-2 melanoma, in the assay on OVCAR-5 ovarian, in the assay on 786-0 renal, in the assay on SF-295 CNS and in the assay on SW-620 colon was > 100 µM throughout. Besides, in the assay on NCI-H522 lung, the TGI is > 100 µM.

Consider `Oc1oc(C(=C2N=c3ccccc3=N2)c2ccc(Cl)cc2)c(O)c1-c1ccc(Cl)cc1`, for which the TGI in the assay with MOLT-4 leukemia is 7.53 µM; with OVCAR-5 ovarian, 6.89 µM; in the assay with 786-0 renal, > 100 µM; in the assay with SF-295 CNS, 16.8 µM; with SW-620 colon it was 68.3 µM; with NCI-H522 lung it was 6.18 µM.

`C=C(C)C(C1C=C(CCC(C=O)=C(C)C)C(=O)O1)C1(OC)C=C(C)C(=O)O1` (stereo not drawn): the GI50 is 34.8 µM in the assay with MOLT-4 leukemia; > 100 µM in the assay on MDA-MB-231 breast; > 100 µM in the assay on SK-MEL-2 melanoma; > 100 µM in the assay with OVCAR-5 ovarian; > 100 µM in the assay with 786-0 renal; > 100 µM in the assay on SF-295 CNS. In addition, the GI50 with SW-620 colon is 39.6 µM; with NCI-H522 lung it was > 100 µM; in the assay on DU-145 prostate, > 100 µM. In addition, the total growth inhibition concentration (TGI) in the assay on MOLT-4 leukemia, in the assay on MDA-MB-231 breast, in the assay with SK-MEL-2 melanoma, with OVCAR-5 ovarian, in the assay with 786-0 renal and in the assay with SF-295 CNS was > 100 µM each time. Moreover, the TGI in the assay on SW-620 colon, in the assay on NCI-H522 lung and in the assay with DU-145 prostate was > 100 µM throughout.
